Data as given in publication PMC13222238, “Development of a gut microbiota model for the analysis of bacterial modifications of xenobiotics” (Applied Microbiology and Biotechnology, 2026).

Key:
[1] = system: sterile-filtered fecal exoenzyme fraction; experiment: Xenobiotic depletion in the sterile-filtered fecal exoenzyme fraction; format: in vitro ADME, human; conditions: anaerobic, 24 h
Protocol: (§1) To further purify the extracellular enzyme (exoenzyme) fraction, the supernatant was centrifuged at 18,000 × g for 3 min at 4 °C. The resulting preparation was then sterile-filtered three times through 0.22-µm syringe filters to ensure complete removal of remaining microbial cells. The sterile exoenzyme fraction was stored anaerobically at −70 °C until further use. The middle layer, which contained the gut bacteria, was collected and referred to as the bacterial colon model. The isolated microbiota was then diluted in sterile 50% (v/v) glycerol and stored at −70 °C under anaerobic conditions.
(§2) To enable parameter-based comparison of compound conversion across incubation matrices, apparent first-order kinetic parameters were calculated from precursor compound depletion data. Only quantifiable time points were considered. Because these values represent apparent kinetic estimates derived from a limited number of sampling points, they were interpreted primarily for comparative purposes. Detailed experimental conditions and analytical parameters are provided in Supplementary Tab. S2.
(§3) To evaluate the metabolic capabilities of the human colon model presented here, a panel of structurally diverse xenobiotics was selected based on microbial biotransformation reactions reported in the literature (Fig. 7, Supplementary Fig. S2). […] Together, these reference substrates served as model compounds covering major gut microbial transformation chemistries, enabling a matrix-to-matrix performance evaluation of the colon model. […] Product levels were estimated using the nitrendipine calibration and are therefore semi-quantitative.
(§4) Table S1: Composition of the modified SHIME®-based regeneration media.
(§5) To evaluate microbial xenobiotic metabolism under defined conditions, incubations were conducted using model substrates representing major biotransformation classes: 4- […]
(§6) reduction), and nitrendipine (nitro group reduction). Reaction mixtures were prepared under […]
(§7) rich substrate formulation with 1 g L-1 mucin, pectin, and xylan (substrate control), (ii) 150 µL pooled fecal suspension (three individual pools with n = 3 donors each, 1:10 diluted in SHIME® saline) + 60 µL fiber-rich substrate, (iii) 300 µL pooled exoenzyme fraction (three individual pools with n = 3 donors each, 1:10 in SHIME® saline), and (iv) 150 µL bacterial colon model + 60 µL fiber-rich substrate. All incubations contained 500 µM of the respective test compound.
(§8) At defined time points, samples were mixed 1:1 (v/v) with ethanol, vortexed, and centrifuged […]
(§9) (18,000 × g, 3 min). The resulting supernatant was combined 1:1 (v/v) with acetonitrile (100 %) […]
(§10) The clarified supernatant was diluted with the mobile phase prior to injection. Non-polar and UV-absorbing compounds were analyzed on a Knauer Eurospher II C8 column (250 × 4 mm, 5 µm) with a C8 guard cartridge using an AZURA CT 2 system (Knauer, Berlin, Germany) equipped with a SpectraSystem SCM1000 degasser, P4000 pump, AS3000 autosampler, and UVD 2.1L detector. Paracetamol was analyzed on a Shodex Asahipak NH2P-50 3E column (Showa Denko, Japan) with a corresponding guard column and an RI- […]
(§11) Chromatographic parameters, including mobile-phase composition, column temperature, flow rate, and detection wavelength are summarized in Suppl. Tab. S1. Quantification of parent compounds and metabolites was performed by […]

[2] = system: pooled human fecal slurry; experiment: Xenobiotic depletion in pooled human fecal slurry, anaerobic incubation
Protocol: as §2, §3, §4, §5, §6, §7, §8, §9, §10
(§12) Chromatographic parameters, including mobile-phase composition, column temperature, flow rate, and detection wavelength are summarized in Suppl. Tab. S1. Quantification of parent compounds and metabolites was performed by external calibration using analytical reference standards.
(§13) Table S2: Chromatographic conditions for HPLC-based detection of selected xenobiotics and their microbial transformation products. Analytes were separated on either C8 or amino columns under compound-specific conditions. Mobile phases consisted of acetonitrile (ACN) with acidic modifiers and were operated under isocratic flow. Detection wavelengths correspond to the absorbance maxima […]
(§14) Column Mobile phase Tempera Flow rate UV detection […]

[3] = Xenobiotic depletion in buffer (SHIME saline with fiber-rich substrate, substrate control)
Protocol: as §2, §4, §5
as §7, with “reduction), and nitrendipine (nitro group reduction). Reaction mixtures were prepared under anaerobic conditions (37°C, 24 h) as follows: (i) 210 µL SHIME® saline containing the fiber-rich substrate formulation” for “rich substrate formulation”
as §8, §9
The clarified supernatant was diluted with the mobile phase prior to injection. Non-polar and UV-absorbing compounds were analyzed on a Knauer Eurospher II C8 column (250 × 4 mm, 5 µm) with a C8 guard cartridge using an AZURA CT 2 system (Knauer, Berlin, Germany) equipped with a SpectraSystem SCM1000 degasser, P4000 pump, AS3000 autosampler, and UVD 2.1L detector. Paracetamol was analyzed on a Shodex Asahipak NH2P-50 3E column (Showa Denko, Japan) with a corresponding guard column and an RI-101 detector (Ercatech AG, Germany). Chromatographic parameters, including mobile-phase composition, column temperature, flow rate, and detection wavelength are summarized in Suppl. Tab. […]. Quantification of parent compounds and metabolites was performed by external calibration using analytical reference standards.
as §13, §14
To confirm the identity of selected biotransformation products, representative samples were analyzed by liquid chromatography-mass spectrometry (LC-MS). Samples were mixed 1:1 (v/v) with ethanol and centrifuged (18,000 × g, 5 min). From the resulting supernatant, 50 µL were diluted in 450 µL H₂O: ACN (70:30, v/v). Prior to analysis, samples were filtered through

bacterial colon model = experiment: in vitro; conditions: for apparent first-order rate constant (k): 500 µM
Protocol: (§15) Our model was based on the isolation of intact bacterial communities from human feces. Bacterial isolation was performed using a modified density gradient centrifugation protocol first described by Hevia et al. ([2015]). To detach bacteria adhering to particulate matter and embedded within fecal biofilms, 0.001% (w/v) cetyltrimethylammonium bromide (CTAB) was added to each diluted fecal sample 30 min prior to further processing (Macfarlane et al. [1997]). All steps involving open sample handling were conducted under strictly anaerobic conditions (79% N2, 19% CO2, 2% H2) within a vinyl anaerobic chamber (Coy Laboratory Products, Grass Lake, Michigan, USA). Samples from three donors were randomly pooled for each preparation to reduce variability among individuals. From each pooled and diluted fecal suspension, 15 mL were layered onto 3.5 mL of 55% (w/v) Nycodenz® (Serumwerk Bernburg AG, Bernburg, Germany) in anaerobic centrifuge tubes. The samples were then centrifuged at 4000 × g for 30 min at room temperature.
(§16) To further purify the extracellular enzyme (exoenzyme) fraction, the supernatant was centrifuged at 18,000 × g for 3 min at 4 °C. The resulting preparation was then sterile-filtered three times through 0.22-µm syringe filters to ensure complete removal of remaining microbial cells. The sterile exoenzyme fraction was stored anaerobically at −70 °C until further use. The middle layer, which contained the gut bacteria, was collected and referred to as the bacterial colon model. The isolated microbiota was then diluted in sterile 50% (v/v) glycerol and stored at −70 °C under anaerobic conditions. Prior to use in experiments, the cryopreserved cells were washed three times with modified SHIME® saline (18,000 × g, 3 min, 4 °C) to remove any remaining Nycodenz®, glycerol, and particulate material. The final cell suspension was adjusted to an optical density at 600 nm (OD600) of 10, corresponding to approximately 1.43 × 10^10 cells mL^−1, as determined microscopically using a Neubauer counting chamber (Hager et al. [2025]). This microbial density was about 16% of the mean in vivo bacterial concentration in the human colon, estimated at 8.8 × 10^10 cells mL^−1 (assuming a fecal density of 1.04 g mL^−1 (Sender et al. [2016])).
as §2
(§17) To evaluate the metabolic capabilities of the human colon model presented here, a panel of structurally diverse xenobiotics was selected based on microbial biotransformation reactions reported in the literature (Fig. 7, Supplementary Fig. S2). […] Together, these reference substrates served as model compounds covering major gut microbial transformation chemistries, enabling a matrix-to-matrix performance evaluation of the colon model. All compounds were incubated anaerobically for 24 h with pooled human fecal slurry, the bacterial colon model, and the sterile-filtered fecal exoenzyme fraction, derived from three independent donor pools (n = 3 each).

[4] = Xenobiotic depletion in the sterile-filtered fecal exoenzyme fraction; format: in vitro ADME, human; conditions: human, sterile-filtered fecal exoenzyme fraction (cell-free), 500 µM test compound, anaerobic, 37°C, 24 h, three donor pools, read-out: half-life (t1/2) (converted)
Protocol: as §1, §2, §3, §4, §5, §6, §7, §8, §9, §10, §11

in vitro = conditions: human
Protocol: as §2, §3, §4, §5, §6, §7, §8, §9, §10, §12, §13, §14

[5] = Xenobiotic depletion in the bacterial colon model, anaerobic incubation; conditions: human
Protocol: as §15, §16, §2, §17

[6] = 500 µM test compound, 37°C, three donor pools
[7] = fecal slurry, 500 µM test compound, anaerobic, 37°C, 24 h, three donor pools
[8] = buffer, 500 µM test compound, anaerobic, 37°C, 24 h

| Structure (SMILES) | apparent first-order rate constant (k) [1, 6] [h⁻¹] | half-life (t1/2) [1, 6] [min] | conversion in the exoenzyme fraction (in words) [1] | conversion in the exoenzyme fraction (in words) ([1]; listed as 4-acetoxyacetanilide) | conversion in fecal slurry (in words) ([2]; fecal slurry, anaerobic, 24 h) | apparent first-order rate constant (k) [2, 7] [h⁻¹] | half-life (t1/2) [2, 7] [min] | apparent first-order rate constant (k) [3, 8] [h⁻¹] | half-life (t1/2) [3, 8] [h] | conversion in the bacterial colon model (in words) (bacterial colon model) | half-life (t1/2) (bacterial colon model; human) [min] | half-life at 500 µM [4] [h] | apparent first-order rate constant (k) ([2]; human, 500 µM) [h⁻¹] | half-life at 500 µM (in vitro) [h] | half-life at 500 µM ([3]; buffer) [h] | apparent first-order rate constant (k) (bacterial colon model; human) [h⁻¹] | half-life at 500 µM [5] [h] | apparent first-order rate constant (k) ([3]; 500 µM) [h⁻¹] |
| --- | --- | --- | --- | --- | --- | --- | --- | --- | --- | --- | --- | --- | --- | --- | --- | --- | --- | --- |
| CC(=O)Nc1ccc(OC(C)=O)cc1 [4-Acetoxyacetanilide, 4-acetoxyacetanilide] | 13.46 | 3 | clear hydrolytic activity | relevant activity | rapidly degraded | 15.38 | 3 | 0.02 | > 24 | rapidly degraded | 1.8 |  |  |  |  |  |  |  |
| O=C(N[C@H](CO)[C@H](O)c1ccc([N+](=O)[O-])cc1)C(Cl)Cl [Chloramphenicol, chloramphenicol] | 0.003 |  |  |  |  |  |  |  |  |  |  | > 24 | 0.45 | 1.54 | > 24 | 0.47 | 1.47 |  |
| CCOC(=O)C1=C(C)NC(C)=C(C(=O)OC)C1c1cccc([N+](=O)[O-])c1 (centres unmarked) [Nitrendipine, nitrendipine] | 0.002 |  | no relevant conversion |  |  |  |  |  |  |  |  | > 24 | 0.44 | 1.58 | > 24 | 0.92 | 0.75 | 0.0009 |
| CC(=O)OCC(=O)NCCCOc1cccc(CN2CCCCC2)c1 [Roxatidine-acetate, roxatidine-acetate] | 0.16 |  |  |  |  |  |  |  |  |  |  | 4.33 | 1.16 | 0.6 | > 24 | 1.13 | 0.61 | 0.005 |
| O=C(O)c1cc(/N=N/c2ccc(S(=O)(=O)Nc3ccccn3)cc2)ccc1O [Sulfasalazine, sulfasalazine] | 0.003 |  |  |  |  |  |  |  |  |  |  | > 24 | 0.93 |  | > 24 | 1.20 |  | 0.002 |
| CC1=C(CC(=O)O)c2cc(F)ccc2/C1=C\c1ccc([S+](C)[O-])cc1 (centres unmarked) [Sulindac, sulindac] | 0.003 |  | no meaningful conversion |  |  |  |  |  |  |  |  | > 24 | 0.12 | 5.78 | > 24 | 0.20 | 3.47 | 0.0003 |
